How the values were obtained:
Format in all cases: biochemical
KAT6A Full length enzyme = KAT6A Full length enzyme (Homo sapiens (Human), UniProt Q92794); test: KAT6A assay (SAMDI-MS acetylation of H3 1-21 peptide); conditions: Morrison equation fit; replicate number in parentheses; read-out: KAT6A Ki (nM) (replicate number)
[1] = target: KAT7+JADE1+EAF6+ING5 4 protein complex (Homo sapiens (Human), UniProt O95251); test: KAT7 JADE1 assay (SAMDI-MS acetylation of H3 1-21 peptide); conditions: Morrison equation fit; replicate number in parentheses; read-out: KAT7 JADE1 Ki (nM) (replicate number)
KAT8 Full length enzyme = KAT8 Full length enzyme (Homo sapiens (Human), UniProt Q9H7Z6); test: KAT8 assay (SAMDI-MS acetylation of H3 1-21 peptide); conditions: Morrison equation fit; replicate number in parentheses; read-out: KAT8 Ki (nM) (replicate number)
Chain of KAT8 Full length enzyme (Q9H7Z6 whole entry): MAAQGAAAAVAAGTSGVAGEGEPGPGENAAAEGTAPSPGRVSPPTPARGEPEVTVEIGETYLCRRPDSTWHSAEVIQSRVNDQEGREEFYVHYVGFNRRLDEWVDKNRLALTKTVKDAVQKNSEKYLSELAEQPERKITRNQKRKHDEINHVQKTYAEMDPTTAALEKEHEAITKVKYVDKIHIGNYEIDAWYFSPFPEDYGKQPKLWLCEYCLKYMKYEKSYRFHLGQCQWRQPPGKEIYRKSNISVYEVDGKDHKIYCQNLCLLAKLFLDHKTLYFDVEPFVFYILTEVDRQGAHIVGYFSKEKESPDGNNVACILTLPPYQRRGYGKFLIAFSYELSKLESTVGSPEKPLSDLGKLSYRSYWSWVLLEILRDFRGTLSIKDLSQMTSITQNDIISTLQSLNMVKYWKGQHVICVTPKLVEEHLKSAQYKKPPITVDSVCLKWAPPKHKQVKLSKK

KAT5 Full length enzyme = KAT5 Full length enzyme (Homo sapiens (Human), UniProt Q92993); test: KAT5 assay (SAMDI-MS acetylation of H4 1-21 peptide); conditions: Morrison equation fit; replicate number in parentheses; read-out: KAT5 Ki (nM) (replicate number)
Chain of KAT5 Full length enzyme (Q92993 whole entry): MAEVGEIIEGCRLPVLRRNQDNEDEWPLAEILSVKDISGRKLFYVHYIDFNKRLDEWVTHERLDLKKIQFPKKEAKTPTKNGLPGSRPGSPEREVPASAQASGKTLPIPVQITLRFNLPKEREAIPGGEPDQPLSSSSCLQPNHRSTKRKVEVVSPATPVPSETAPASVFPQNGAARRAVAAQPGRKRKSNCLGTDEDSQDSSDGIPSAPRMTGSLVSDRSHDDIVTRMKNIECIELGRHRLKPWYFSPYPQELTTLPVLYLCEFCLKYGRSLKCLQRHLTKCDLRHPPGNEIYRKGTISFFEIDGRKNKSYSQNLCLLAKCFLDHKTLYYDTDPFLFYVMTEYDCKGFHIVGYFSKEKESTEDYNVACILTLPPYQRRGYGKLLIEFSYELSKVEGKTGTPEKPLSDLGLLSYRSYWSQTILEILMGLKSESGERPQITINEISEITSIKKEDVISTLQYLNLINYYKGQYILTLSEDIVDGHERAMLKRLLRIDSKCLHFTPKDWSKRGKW

Chain of KAT6A Full length enzyme (Q92794 other isoform, or with tags, fused parts or gaps): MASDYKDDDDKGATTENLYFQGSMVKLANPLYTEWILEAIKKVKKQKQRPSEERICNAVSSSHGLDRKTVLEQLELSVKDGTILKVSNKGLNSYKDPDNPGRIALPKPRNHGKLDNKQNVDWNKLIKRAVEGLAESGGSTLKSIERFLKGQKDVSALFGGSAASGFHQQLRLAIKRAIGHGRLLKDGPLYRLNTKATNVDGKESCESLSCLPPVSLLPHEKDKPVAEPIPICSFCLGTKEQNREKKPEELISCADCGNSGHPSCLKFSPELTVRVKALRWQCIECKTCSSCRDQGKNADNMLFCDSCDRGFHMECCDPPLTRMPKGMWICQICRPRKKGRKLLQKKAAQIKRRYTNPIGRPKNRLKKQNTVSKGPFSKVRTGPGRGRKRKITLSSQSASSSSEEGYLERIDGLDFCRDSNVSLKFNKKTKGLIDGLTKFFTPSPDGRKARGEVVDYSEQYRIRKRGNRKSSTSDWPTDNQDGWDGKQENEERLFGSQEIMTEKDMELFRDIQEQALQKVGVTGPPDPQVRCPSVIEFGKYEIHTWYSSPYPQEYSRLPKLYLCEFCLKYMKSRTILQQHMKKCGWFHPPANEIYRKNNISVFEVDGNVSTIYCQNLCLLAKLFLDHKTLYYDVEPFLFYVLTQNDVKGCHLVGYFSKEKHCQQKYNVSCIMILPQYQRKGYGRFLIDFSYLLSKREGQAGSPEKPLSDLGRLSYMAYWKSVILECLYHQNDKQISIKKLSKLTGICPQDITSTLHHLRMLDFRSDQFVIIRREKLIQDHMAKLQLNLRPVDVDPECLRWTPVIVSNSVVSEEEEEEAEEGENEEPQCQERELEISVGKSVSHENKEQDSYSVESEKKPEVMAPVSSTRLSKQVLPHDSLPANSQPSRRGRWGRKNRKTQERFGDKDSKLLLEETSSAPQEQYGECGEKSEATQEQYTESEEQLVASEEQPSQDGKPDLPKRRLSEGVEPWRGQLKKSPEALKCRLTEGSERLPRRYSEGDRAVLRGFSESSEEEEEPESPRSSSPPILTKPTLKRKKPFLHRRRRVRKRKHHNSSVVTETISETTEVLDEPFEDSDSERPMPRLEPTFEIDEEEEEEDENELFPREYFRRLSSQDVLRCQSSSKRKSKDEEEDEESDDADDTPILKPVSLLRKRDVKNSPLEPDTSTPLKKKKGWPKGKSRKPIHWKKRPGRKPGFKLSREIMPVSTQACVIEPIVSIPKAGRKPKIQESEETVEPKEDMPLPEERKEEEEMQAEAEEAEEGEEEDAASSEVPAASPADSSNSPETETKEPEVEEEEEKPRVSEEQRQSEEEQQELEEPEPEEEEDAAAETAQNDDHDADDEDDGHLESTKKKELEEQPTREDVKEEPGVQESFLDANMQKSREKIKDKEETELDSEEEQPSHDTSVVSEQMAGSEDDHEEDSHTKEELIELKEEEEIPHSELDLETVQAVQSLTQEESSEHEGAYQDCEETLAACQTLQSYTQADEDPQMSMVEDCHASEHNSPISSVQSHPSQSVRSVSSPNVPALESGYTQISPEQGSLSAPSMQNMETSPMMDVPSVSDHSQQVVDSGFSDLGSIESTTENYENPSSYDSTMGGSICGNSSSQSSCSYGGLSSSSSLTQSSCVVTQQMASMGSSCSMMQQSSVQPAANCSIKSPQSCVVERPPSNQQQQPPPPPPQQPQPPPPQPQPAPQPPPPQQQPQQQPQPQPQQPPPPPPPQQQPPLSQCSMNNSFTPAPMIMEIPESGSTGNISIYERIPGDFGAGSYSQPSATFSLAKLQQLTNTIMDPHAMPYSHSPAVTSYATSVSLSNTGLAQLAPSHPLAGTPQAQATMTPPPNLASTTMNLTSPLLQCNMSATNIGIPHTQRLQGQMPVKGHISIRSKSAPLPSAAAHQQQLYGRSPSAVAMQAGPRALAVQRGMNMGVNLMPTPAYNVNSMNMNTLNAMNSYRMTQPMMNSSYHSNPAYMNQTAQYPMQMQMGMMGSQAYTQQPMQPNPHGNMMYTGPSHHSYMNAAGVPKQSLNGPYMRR

SMILES | Ki (KAT6A Full length enzyme) [nM] | Ki [1] [nM] | Ki (KAT8 Full length enzyme) [nM] | Ki (KAT5 Full length enzyme) [nM]
CCc1cc(Nc2cc3onc(NS(=O)(=O)c4cc(Cl)ccc4Cl)c3cc2OC)n[nH]1 [Example 134, 2,5-dichloro-N-{6-[(5-ethyl-1 H-pyrazol-3-yl)amino]-5-methoxy-1,2-benzoxazol-3-yl}benzene-1-sulfonamide] | 34.3 | 185 | 9800 | 4550
COc1cc2c(NS(=O)(=O)c3c(OC)cccc3OC)noc2cc1Nc1cc(C2CC2)n(C)n1 [Example 103, N-{6-[(5-cyclopropyl-1-methyl-1H-pyrazol-3-yl)amino]-5-methoxy-1,2-benzoxazol-3-yl}-2,6-dimethoxybenzene-1-sulfonamide] | 2.8 | 47.4 | 6010 | 254
COc1cccc(OC)c1S(=O)(=O)Nc1noc2cc(NC3CCC3)cc(OC)c12 [Example 10, N-[6-(cyclobutylamino)-4-methoxy-1,2-benzoxazol-3-yl]-2,6-dimethoxybenzene-1-sulfonamide] | 3.1 | 727 | 11500 | 11800
CCOc1cc(F)ccc1S(=O)(=O)Nc1noc2cc(Nc3cc(C4CC4)n[nH]3)c(F)c(OC)c12 [Example 76, N-{6-[(3-cyclopropyl-1H-pyrazol-5-yl)amino]-5-fluoro-4-methoxy-1,2-benzoxazol-3-yl}-2-ethoxy-4-fluorobenzene-1-sulfonamide] | 11.1 | 92 | > 13000 | 1160
COc1cccc(OC2CC2)c1S(=O)(=O)Nc1noc2cc(Nc3cc(C4CC4)n[nH]3)c(F)c(OC)c12 [Example 80, 2-(cyclopropyloxy)-N-{6-[(5-cyclopropyl-1H-pyrazol-3-yl)amino]-5-fluoro-4-methoxy-1,2-benzoxazol-3-yl}-6-methoxybenzene-1-sulfonamide] | 3.8 | 32.3 | 7760 | 1450
CCc1cc(Nc2cc3onc(NS(=O)(=O)c4cccc(Oc5ccccc5C)c4)c3cc2OC)n[nH]1 [Example 125, N-{6-[(5-ethyl-1 H-pyrazol-3-yl)amino]-5-methoxy-1,2-benzoxazol-3-yl}-3-(2-methylphenoxy)benzene-1-sulfonamide] | 48.6 | 180 | > 13000 | 5090
COc1cc2c(NS(=O)(=O)c3c(OC)cc(C4CN(C)CCO4)cc3OC)noc2cc1Nc1cc(C2CC2)n[nH]1 (single isomer, unassigned) [Example 152, N-{6-[(3-cyclopropyl-1 H-pyrazol-5-yl)amino]-5-methoxy-1,2-benzoxazol-3-yl}-2,6-dimethoxy-4-(4-methylmorpholin-2-yl)benzene-1-sulfonamide] | 0.7 | 4.1 | 1160 | 105
CCc1cc(Nc2cc3onc(NS(=O)(=O)c4cc(F)ccc4Br)c3cc2OC)n[nH]1 [Example 135, 2-bromo-N-{6-[(5-ethyl-1H-pyrazol-3-yl)amino]-5-methoxy-1,2-benzoxazol-3-yl}-5-fluorobenzene-1-sulfonamide] | 52.6 | 156 | > 13000 | 3080
COc1cc2c(NS(=O)(=O)c3c(OC)cccc3OC)noc2cc1Nc1cc2n(n1)CCC21CC1 [Example 112, N-{6-[(5′,6′-dihydrospiro[cyclopropane-1,4′-pyrrolo[1,2-b]pyrazol]-2′-yl)amino]-5-methoxy-1,2-benzoxazol-3-yl}-2,6-dimethoxybenzene-1-sulfonamide] | 17.6 | 238 | > 13000 | 689
COc1cc2c(NS(=O)(=O)c3c(OC)cccc3OC)noc2cc1Nc1cc2n(n1)CC[C@@H]2C (single isomer, unassigned) [Example 89, 2,6-dimethoxy-N-(5-methoxy-6-{[4-methyl-5,6-dihydro-4H-pyrrolo[1,2-b]pyrazol-2-yl]amino}-1,2-benzoxazol-3-yl)benzene-1-sulfonamide] | 3 | 39.3 | > 12200 | 168
COc1cc2c(NS(=O)(=O)c3c(OC)cccc3OC)noc2cc1Nc1cc2n(n1)CC[C@H]2C (single isomer, unassigned) [Example 90, 2,6-dimethoxy-N-(5-methoxy-6-{[4-methyl-5,6-dihydro-4H-pyrrolo[1,2-b]pyrazol-2-yl]amino}-1,2-benzoxazol-3-yl)benzene-1-sulfonamide] | 3.4 | 62.4 | > 13000 | 251
COc1cc2c(NS(=O)(=O)c3c(OC)cccc3OC)noc2cc1Nc1cc(C(C)(F)F)n[nH]1 [Example 66, N-(6-{[3-(1,1-difluoroethyl)-1H-pyrazol-5-yl]amino}-5-methoxy-1,2-benzoxazol-3-yl)-2,6-dimethoxybenzene-1-sulfonamide] | 10.7 | 130 | > 13000 | 871
COc1cccc(OC)c1S(=O)(=O)Nc1noc2cc(Nc3cccnn3)cc(OC)c12 [Example 19, 2,6-dimethoxy-N-{4-methoxy-6-[(pyridazin-3-yl)amino]-1,2-benzoxazol-3-yl}benzene-1-sulfonamide] | 30.8 | 516 | > 16300 | 15700
CCc1ccc(S(=O)(=O)Nc2noc3cc(Nc4cc(CC)[nH]n4)c(OC)cc23)cc1 [Example 136, 4-ethyl-N-{6-[(5-ethyl-1 H-pyrazol-3-yl)amino]-5-methoxy-1,2-benzoxazol-3-yl}benzene-1-sulfonamide] | 16.3 | 92.7 | > 13000 | 2940
CCc1cc(Nc2cc3onc(NS(=O)(=O)c4ccc(Oc5ccccc5)cc4)c3cc2OC)n[nH]1 [Example 132, N-{6-[(5-ethyl-1 H-pyrazol-3-yl)amino]-5-methoxy-1,2-benzoxazol-3-yl}-4-phenoxybenzene-1-sulfonamide] | 82.7 | 410 | > 13000 | 5520
COc1cc2c(NS(=O)(=O)c3c(OC)cc(C4CCCCO4)cc3OC)noc2cc1Nc1cc(C2CC2)n[nH]1 (single isomer, unassigned) [Example 143, N-{6-[(3-cyclopropyl-1 H-pyrazol-5-yl)amino]-5-methoxy-1,2-benzoxazol-3-yl}-2,6-dimethoxy-4-(oxan-2-yl)benzene-1-sulfonamide] | 1.1 | 9.6 | 436 | 44.3
COc1cc2c(NS(=O)(=O)c3c(OC)cc(-c4ccncc4)cc3OC)noc2cc1Nc1cc(C2CC2)n[nH]1 [Example 120, N-{6-[(3-cyclopropyl-1H-pyrazol-5-yl)amino]-5-methoxy-1,2-benzoxazol-3-yl}-2,6-dimethoxy-4-(pyridin-4-yl)benzene-1-sulfonamide] | 0.8 | 10.8 | 640 | 236
CCc1cc(Nc2cc3onc(NS(=O)(=O)c4c(OC)cc(-c5ccn(C)n5)cc4OC)c3cc2OC)[nH]n1 [Example 230, N-{6-[(3-ethyl-1H-pyrazol-5-yl)amino]-5-methoxy-1,2-benzoxazol-3-yl}-2,6-dimethoxy-4-(1-methyl-1 H-pyrazol-3-yl)benzene-1-sulfonamide] | 1 | 2.3 | 1960 | 158
COc1cccc(OC)c1S(=O)(=O)Nc1noc2cc(Nc3ccon3)cc(OC)c12 [Example 16, 2,6-dimethoxy-N-{4-methoxy-6-[(1,2-oxazol-3-yl)amino]-1,2-benzoxazol-3-yl}benzene-1-sulfonamide] | 0.2 | 702 | 2250 | 1650
COc1cc2c(NS(=O)(=O)c3cc4ccccc4cc3OC)noc2cc1Nc1cc(C2CC2)n[nH]1 [Example 95, N-{6-[(3-cyclopropyl-1H-pyrazol-5-yl)amino]-5-methoxy-1,2-benzoxazol-3-yl}-3-methoxynaphthalene-2-sulfonamide] | 0.1 | 0.3 | 77 | 18.1
COc1cc2c(NS(=O)(=O)c3c(OC)cccc3OC)noc2cc1Nc1cc([C@@H]2CC2(F)F)[nH]n1 (single isomer, unassigned) [Example 69, N-(6-{[5-(2,2-difluorocyclopropyl)-1H-pyrazol-3-yl]amino}-5-methoxy-1,2-benzoxazol-3-yl)-2,6-dimethoxybenzene-1-sulfonamide] | > 3290 | > 29000 | > 13000 | > 50000
CCc1cnc(Nc2cc3onc(NS(=O)(=O)c4c(OC)cccc4OC)c3cc2OC)nc1 [Example 107, N-{6-[(5-ethylpyrimidin-2-yl)amino]-5-methoxy-1,2-benzoxazol-3-yl}-2,6-dimethoxybenzene-1-sulfonamide] | 132 | 6540 | > 13000 | 10400
COc1cc(F)ccc1S(=O)(=O)Nc1noc2cc(Nc3cc(C4CC4)n[nH]3)c(F)c(OC)c12 [Example 97, N-{6-[(3-cyclopropyl-1H-pyrazol-5-yl)amino]-5-fluoro-4-methoxy-1,2-benzoxazol-3-yl}-4-fluoro-2-methoxybenzene-1-sulfonamide] | 9.8 | 57.7 | > 13000 | 795
COc1cc2c(NS(=O)(=O)c3c(OC)cc(-c4ncccn4)cc3OC)noc2cc1Nc1cc(C2CC2)n[nH]1 [Example 211, N-{6-[(3-cyclopropyl-1 H-pyrazol-5-yl)amino]-5-methoxy-1,2-benzoxazol-3-yl}-2,6-dimethoxy-4-(pyrimidin-2-yl)benzene-1-sulfonamide] | 1.1 | 3.7 | 1350 | 89.4
